Usually DC50 stands for the concentration giving 50% degradation. For orientation: Dmax means the greatest extent of degradation seen.

This passage reports DC50 and Dmax results from patent US12539292B2, “BRM targeting compounds and associated methods of use” (Arvinas Operations, Inc., priority 2018, dated 2026).

Where two headings read alike, the source gives them in different places.

For this test, the target named is T1, BRM (Homo sapiens, UniProt P51531).
T1 construct: In-Cell Western Screen of BRM Degradation in SW1573 Cells; endogenous in cells; host or cells: SW1573
T1 sequence (P51531 whole entry): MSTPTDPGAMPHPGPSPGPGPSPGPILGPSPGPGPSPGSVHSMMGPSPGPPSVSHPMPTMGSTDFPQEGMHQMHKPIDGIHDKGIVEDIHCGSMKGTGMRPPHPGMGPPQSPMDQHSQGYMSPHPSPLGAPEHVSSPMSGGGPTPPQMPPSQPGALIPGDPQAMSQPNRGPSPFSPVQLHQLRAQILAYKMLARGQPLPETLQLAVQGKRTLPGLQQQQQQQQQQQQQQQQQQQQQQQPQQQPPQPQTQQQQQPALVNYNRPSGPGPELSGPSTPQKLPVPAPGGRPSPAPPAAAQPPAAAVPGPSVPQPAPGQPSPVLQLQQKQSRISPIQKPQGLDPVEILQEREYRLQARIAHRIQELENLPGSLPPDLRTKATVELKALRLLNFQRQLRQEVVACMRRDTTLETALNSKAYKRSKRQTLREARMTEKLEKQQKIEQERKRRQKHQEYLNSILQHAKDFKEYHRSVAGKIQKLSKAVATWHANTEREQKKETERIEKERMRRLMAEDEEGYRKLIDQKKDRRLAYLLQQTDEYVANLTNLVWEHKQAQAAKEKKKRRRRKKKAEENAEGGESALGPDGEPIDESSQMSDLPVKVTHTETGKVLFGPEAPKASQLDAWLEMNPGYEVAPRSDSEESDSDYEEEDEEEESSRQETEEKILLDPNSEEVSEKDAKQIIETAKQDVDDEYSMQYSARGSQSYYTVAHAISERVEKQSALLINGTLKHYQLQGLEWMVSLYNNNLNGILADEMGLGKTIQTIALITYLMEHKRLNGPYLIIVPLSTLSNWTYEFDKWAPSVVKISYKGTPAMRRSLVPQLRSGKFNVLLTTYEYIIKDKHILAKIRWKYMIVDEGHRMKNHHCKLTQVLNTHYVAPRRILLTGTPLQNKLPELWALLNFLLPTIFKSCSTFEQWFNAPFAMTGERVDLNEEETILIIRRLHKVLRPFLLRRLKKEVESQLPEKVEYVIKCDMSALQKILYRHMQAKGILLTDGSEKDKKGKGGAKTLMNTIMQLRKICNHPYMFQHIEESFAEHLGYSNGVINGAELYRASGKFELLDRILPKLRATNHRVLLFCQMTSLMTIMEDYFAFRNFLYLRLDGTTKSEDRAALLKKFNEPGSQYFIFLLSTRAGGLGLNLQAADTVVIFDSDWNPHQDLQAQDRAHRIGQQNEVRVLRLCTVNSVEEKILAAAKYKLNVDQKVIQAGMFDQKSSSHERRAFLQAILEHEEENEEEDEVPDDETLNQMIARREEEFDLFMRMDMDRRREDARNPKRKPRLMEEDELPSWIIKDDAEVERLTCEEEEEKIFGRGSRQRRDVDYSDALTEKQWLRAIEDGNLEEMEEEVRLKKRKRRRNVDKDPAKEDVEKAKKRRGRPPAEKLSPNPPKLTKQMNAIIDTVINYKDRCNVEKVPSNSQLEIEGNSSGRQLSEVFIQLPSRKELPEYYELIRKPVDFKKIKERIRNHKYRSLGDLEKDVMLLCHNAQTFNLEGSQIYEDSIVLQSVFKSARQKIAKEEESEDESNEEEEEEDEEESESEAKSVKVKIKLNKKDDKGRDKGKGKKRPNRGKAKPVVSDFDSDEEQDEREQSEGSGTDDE
The test can be described thus: In-cell Western screen of BRM degradation in SW1573 cells (Dmax and DC50). The format is cell-based. The conditions noted are these: BRM degradation, SW1573 cells. The gist of the method: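 BRM levels were read by LI-COR in-cell Western after two-channel (800/680 nm) immunostaining of fixed, Triton-permeabilised SW1573 cells.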

Where [1] appears, read: Table 2D, read-out: **Dmax (%) (% degraded).

On to `Cc1ncsc1-c1ccc([C@H](C)NC(=O)[C@@H]2C[C@@H](O)CN2C(=O)[C@H](c2cc(N3CCC(CN4CCC(O[C@H]5C[C@H](N6CCOC7(CCN(c8cc(-c9ccccc9O)nnc8N)CC7)C6)C5)CC4)CC3)no2)C(C)C)cc1` [compound 617, (2S,4R)-1-((S)-2-(3-(4-((4-((1r,3r)-3-(9-(3-amino-6-(2-hydroxyphenyl)pyridazin-4-yl)-1-oxa-4,9-diazaspiro[5.5]undecan-4-yl)cyclobutoxy)piperidin-1-yl)methyl)piperidin-1-yl)isoxazol-5-yl)-3-methylbutanoyl)-4-hydroxy-N-((S)-1-(4-(4-methylthiazol-5-yl)phenyl)ethyl)pyrrolidine-2-carboxamide], for which, where the note is “Table 2D, read-out: *DC50”, the half-maximal degradation concentration (DC50) was > 30 nM.

Turning to `Cc1ncsc1-c1ccc([C@H](C)NC(=O)[C@@H]2C[C@@H](O)CN2C(=O)[C@@H](c2cc(N3CCC(CN4CCC(O[C@H]5C[C@H](N6CCOC7(CCN(c8cc(-c9ccccc9O)nnc8N)CC7)C6)C5)CC4)CC3)no2)C(C)C)cc1` [compound 618, (2S,4R)-1-((R)-2-(3-(4-((4-((1r,3r)-3-(9-(3-amino-6-(2-hydroxyphenyl)pyridazin-4-yl)-1-oxa-4,9-diazaspiro[5.5]undecan-4-yl)cyclobutoxy)piperidin-1-yl)methyl)piperidin-1-yl)isoxazol-5-yl)-3-methylbutanoyl)-4-hydroxy-N-((S)-1-(4-(4-methylthiazol-5-yl)phenyl)ethyl)pyrrolidine-2-carboxamide], the Dmax under setting [1] is > 75%. Moreover, the DC50 (Table 2D, read-out: *DC50) is < 2.5 nM.

Consider `Cc1ncsc1-c1ccc([C@H](C)NC(=O)[C@@H]2C[C@@H](O)CN2C(=O)[C@H](c2cc(OCCC3CCN(C[C@H]4C[C@H](N5CCC(C(C)n6cc(-c7cc(-c8ccccc8O)nnc7N)cn6)CC5)C4)CC3)no2)C(C)C)cc1` (stereo partly drawn) [compound 619, (2S,4R)-1-((2S)-2-(3-(2-(1-(((1r,3S)-3-(4-(1-(4-(3-amino-6-(2-hydroxyphenyl)pyridazin-4-yl)-1H-pyrazol-1-yl)ethyl)piperidin-1-yl)cyclobutyl)methyl)piperidin-4-yl)ethoxy)isoxazol-5-yl)-3-methylbutanoyl)-4-hydroxy-N-((S)-1-(4-(4-methylthiazol-5-yl)phenyl)ethyl)pyrrolidine-2-carboxamide], for which the DC50 (Table 2D, read-out: *DC50) was > 30 nM.

`CC(C)[C@H](C(=O)N1C[C@H](O)C[C@H]1C(=O)N[C@@H](C)c1ccc(-n2ccnc2N)cc1)c1cc(N2CCC(CN3CCC(O[C@H]4C[C@H](Oc5cc(N6C7CCC6CN(c6cc(-c8ccccc8O)nnc6N)C7)ccn5)C4)CC3)CC2)no1` [compound 620, (2S,4R)-N-((S)-1-(4-(2-amino-1H-imidazol-1-yl)phenyl)ethyl)-1-((2S)-2-(3-(4-((4-((1r,3r)-3-((4-(3-(3-amino-6-(2-hydroxyphenyl)pyridazin-4-yl)-3,8-diazabicyclo[3.2.1]octan-8-yl)pyridin-2-yl)oxy)cyclobutoxy)piperidin-1-yl)methyl)piperidin-1-yl)isoxazol-5-yl)-3-methylbutanoyl)-4-hydroxypyrrolidine-2-carboxamide]: the DC50 (Table 2D, read-out: *DC50) was > 30 nM.

`CC(C)[C@@H](C(=O)N1C[C@H](O)C[C@H]1C(=O)N[C@@H](C)c1ccc(-n2ccnc2N)cc1)c1cc(N2CCC(CN3CCC(O[C@H]4C[C@H](Oc5cc(N6C7CCC6CN(c6cc(-c8ccccc8O)nnc6N)C7)ccn5)C4)CC3)CC2)no1` [compound 621, (2S,4R)-N-((S)-1-(4-(2-amino-1H-imidazol-1-yl)phenyl)ethyl)-1-((2R)-2-(3-(4-((4-((1r,3r)-3-((4-(3-(3-amino-6-(2-hydroxyphenyl)pyridazin-4-yl)-3,8-diazabicyclo[3.2.1]octan-8-yl)pyridin-2-yl)oxy)cyclobutoxy)piperidin-1-yl)methyl)piperidin-1-yl)isoxazol-5-yl)-3-methylbutanoyl)-4-hydroxypyrrolidine-2-carboxamide]: the Dmax under setting [1] was > 75%. The DC50 (Table 2D, read-out: *DC50) was < 2.5 nM.

On to `CC(C)[C@@H](C(=O)N1C[C@H](O)C[C@H]1C(=O)N[C@@H](C)c1ccc(-c2ccnn2C)cc1)c1cc(N2CCC(CN3CCC(O[C@H]4C[C@H](Oc5cc(N6C7CCC6CN(c6cc(-c8ccccc8O)nnc6N)C7)ccn5)C4)CC3)CC2)no1` [compound 622, (2S,4R)-1-((2R)-2-(3-(4-((4-((1r,3r)-3-((4-(3-(3-amino-6-(2-hydroxyphenyl)pyridazin-4-yl)-3,8-diazabicyclo[3.2.1]octan-8-yl)pyridin-2-yl)oxy)cyclobutoxy)piperidin-1-yl)methyl)piperidin-1-yl)isoxazol-5-yl)-3-methylbutanoyl)-4-hydroxy-N-((S)-1-(4-(1-methyl-1H-pyrazol-5-yl)phenyl)ethyl)pyrrolidine-2-carboxamide], for which the Dmax under setting [1] was > 75%. Besides, under “Table 2D, read-out: *DC50”, the DC50 was < 2.5 nM.

Take `Cc1ncsc1-c1ccc([C@H](C)NC(=O)[C@@H]2C[C@@H](O)CN2C(=O)[C@H](c2cc(N3CCC4(CC3)CN(C[C@H]3C[C@H](Oc5cc(N6C7CCC6CN(c6cc(-c8ccccc8O)nnc6N)C7)ccn5)C3)CCO4)no2)C(C)C)cc1` [compound 623, (2S,4R)-1-((2S)-2-(3-(4-(((1r,3S)-3-((4-(3-(3-amino-6-(2-hydroxyphenyl)pyridazin-4-yl)-3,8-diazabicyclo[3.2.1]octan-8-yl)pyridin-2-yl)oxy)cyclobutyl)methyl)-1-oxa-4,9-diazaspiro[5.5]undecan-9-yl)isoxazol-5-yl)-3-methylbutanoyl)-4-hydroxy-N-((S)-1-(4-(4-methylthiazol-5-yl)phenyl)ethyl)pyrrolidine-2-carboxamide]: the DC50 (Table 2D, read-out: *DC50) is > 30 nM.

With `Cc1ncsc1-c1ccc([C@H](C)NC(=O)[C@@H]2C[C@@H](O)CN2C(=O)[C@@H](c2cc(N3CCC4(CC3)CN(C[C@H]3C[C@H](Oc5cc(N6C7CCC6CN(c6cc(-c8ccccc8O)nnc6N)C7)ccn5)C3)CCO4)no2)C(C)C)cc1` [compound 624, (2S,4R)-1-((2R)-2-(3-(4-(((1r,3R)-3-((4-(3-(3-amino-6-(2-hydroxyphenyl)pyridazin-4-yl)-3,8-diazabicyclo[3.2.1]octan-8-yl)pyridin-2-yl)oxy)cyclobutyl)methyl)-1-oxa-4,9-diazaspiro[5.5]undecan-9-yl)isoxazol-5-yl)-3-methylbutanoyl)-4-hydroxy-N-((S)-1-(4-(4-methylthiazol-5-yl)phenyl)ethyl)pyrrolidine-2-carboxamide], the Dmax under setting [1] was > 75%. Besides, the DC50 (Table 2D, read-out: *DC50) was < 2.5 nM.

As for `Cc1ncsc1-c1ccc([C@H](C)NC(=O)[C@@H]2C[C@@H](O)CN2C(=O)[C@H](c2cc(N3CCC(CN4CCC(O[C@H]5C[C@H](Oc6cc(/C=C/c7cc(-c8ccccc8O)nnc7N)ccn6)C5)CC4)CC3)no2)C(C)C)cc1` [compound 625, (2S,4R)-1-((S)-2-(3-(4-((4-((1r,3r)-3-((4-((E)-2-(3-amino-6-(2-hydroxyphenyl)pyridazin-4-yl)vinyl)pyridin-2-yl)oxy)cyclobutoxy)piperidin-1-yl)methyl)piperidin-1-yl)isoxazol-5-yl)-3-methylbutanoyl)-4-hydroxy-N-((S)-1-(4-(4-methylthiazol-5-yl)phenyl)ethyl)pyrrolidine-2-carboxamide], under “Table 2D, read-out: *DC50”, the DC50 is > 30 nM.

Turning to `Cc1ncsc1-c1ccc([C@H](C)NC(=O)[C@@H]2C[C@@H](O)CN2C(=O)[C@@H](c2cc(N3CCC(CN4CCC(O[C@H]5C[C@H](Oc6cc(/C=C/c7cc(-c8ccccc8O)nnc7N)ccn6)C5)CC4)CC3)no2)C(C)C)cc1` [compound 626, (2S,4R)-1-((R)-2-(3-(4-((4-((1r,3r)-3-((4-((E)-2-(3-amino-6-(2-hydroxyphenyl)pyridazin-4-yl)vinyl)pyridin-2-yl)oxy)cyclobutoxy)piperidin-1-yl)methyl)piperidin-1-yl)isoxazol-5-yl)-3-methylbutanoyl)-4-hydroxy-N-((S)-1-(4-(4-methylthiazol-5-yl)phenyl)ethyl)pyrrolidine-2-carboxamide], where the note is “read-out: DC50”, the DC50 was < 2.5 nM. The Dmax (read-out: Dmax (% degraded)) was > 75%.

As to `Cc1ncsc1-c1ccc([C@H](C)NC(=O)[C@@H]2C[C@@H](O)CN2C(=O)[C@@H](c2cc(OCCN3CC[C@@H](O[C@H]4C[C@H](Oc5cc(N6C7CCC6CN(c6cc(-c8ccccc8O)nnc6N)C7)ccn5)C4)C[C@@H]3C)no2)C(C)C)cc1` [compound 627, (2S,4R)-1-((2R)-2-(3-(2-((2S,4R)-4-((1r,3R)-3-((4-(3-(3-amino-6-(2-hydroxyphenyl)pyridazin-4-yl)-3,8-diazabicyclo[3.2.1]octan-8-yl)pyridin-2-yl)oxy)cyclobutoxy)-2-methylpiperidin-1-yl)ethoxy)isoxazol-5-yl)-3-methylbutanoyl)-4-hydroxy-N-((S)-1-(4-(4-methylthiazol-5-yl)phenyl)ethyl)pyrrolidine-2-carboxamide], the DC50 (read-out: DC50) was < 2.5 nM. Where the note is “read-out: Dmax (% degraded)”, the Dmax was > 75%.

On to `Cc1ncsc1-c1ccc([C@H](C)NC(=O)[C@@H]2C[C@@H](O)CN2C(=O)[C@@H](c2cc(OCCN3CC[C@H](O[C@H]4C[C@H](Oc5cc(N6C7CCC6CN(c6cc(-c8ccccc8O)nnc6N)C7)ccn5)C4)C[C@H]3C)no2)C(C)C)cc1` [compound 628, (2S,4R)-1-((2R)-2-(3-(2-((2R,4S)-4-((1r,3S)-3-((4-(3-(3-amino-6-(2-hydroxyphenyl)pyridazin-4-yl)-3,8-diazabicyclo[3.2.1]octan-8-yl)pyridin-2-yl)oxy)cyclobutoxy)-2-methylpiperidin-1-yl)ethoxy)isoxazol-5-yl)-3-methylbutanoyl)-4-hydroxy-N-((S)-1-(4-(4-methylthiazol-5-yl)phenyl)ethyl)pyrrolidine-2-carboxamide], for which the DC50 (read-out: DC50) was < 2.5 nM. Besides, the Dmax (read-out: Dmax (% degraded)) was > 75%.
